In patent publication US4861788A, “Antibacterial 1-normon-2-yl-heterocyclic compounds” (Beecham Group plc, priority 1983, dated 1989):
Values after ≈ are worked out from the molar mass of the structure shown. Read-outs that look alike come from different tables or passages of the source.

Experiments:
M. hyopneumoniae LABER = assay: MIC against Mycoplasma in vitro (Friis broth with agarose); format: cell-based; settings: Mesomycoplasma hyopneumoniae, 144 h
M. hyopneumoniae JF 435 = assay: as above; format: cell-based; settings: Mesomycoplasma hyopneumoniae, JF435, 144 h
Staph. aureus Oxford [1] = assay: MIC against veterinary bacteria in vitro (Diagnostic Sensitivity Test Agar); settings: Staphylococcus aureus, 18 h
Procedure: (§2) The activity of the normonyl derivatives of the Examples against various veterinarily important bacteria, was assayed in vitro using two-fold serial dilutions in Diagnostic Sensitivity Test Agar inoculated with 10^4 organisms.

M. hyopneumoniae HK (2) = assay: MIC against Mycoplasma in vitro (Friis broth with agarose); format: cell-based; settings: Mesomycoplasma hyopneumoniae, 144 h
Strep. agalactiae 2788-B = assay: MIC against human bacteria in vitro (nutrient agar, chocolated horse blood); format: cell-based; settings: Streptococcus agalactiae; human; Strep. agalactiae 2788-B; 18 hours at 37° C; read-out: MIC
Procedure: (§1) The activity of the normonyl derivaties of the Examples against various bacteria which are important in diseases of humans, was assayed in vitro using serial dilutions in nurient agar with 5% chocolated horse blood.

E. coli ESS = assay: as above; format: cell-based; settings: Escherichia coli; human; E. coli ESS; 18 hours at 37° C; read-out: MIC
Procedure: as §1

Bacillus subtilis 6633 = assay: as above; format: cell-based; settings: human; Bacillus subtilis 6633; 18 hours at 37° C; read-out: MIC
Procedure: as §1

[2] = test system: Strep. pyogenes R80/421-A; assay: as above; format: cell-based; settings: Streptococcus pyogenes; human; Strep. pyogenes R80/421-A; 18 hours at 37° C; read-out: MIC
Procedure: as §1

[3] = test system: Pasteurella multocida 1633; assay: as above; format: cell-based; settings: human; Pasteurella multocida 1633; 18 hours at 37° C; read-out: MIC
Procedure: as §1

[4] = test system: Ps. aeruginosa NCTC 10662; assay: as above; format: cell-based; settings: Pseudomonas aeruginosa, NCTC10662; human; Ps. aeruginosa NCTC 10662; 18 hours at 37° C; read-out: MIC
Procedure: as §1

P. mirabilis 889 = assay: as above; format: cell-based; settings: Proteus mirabilis; human; P. mirabilis 889; 18 hours at 37° C; read-out: MIC
Procedure: as §1

[5] = test system: Corynebacterium xerosis 9755; assay: as above; format: cell-based; settings: human; Corynebacterium xerosis 9755; 18 hours at 37° C; read-out: MIC
Procedure: as §1

Strep. spp. 64/848-C = assay: as above; format: cell-based; settings: human; Strep. spp. 64/848-C; 18 hours at 37° C; read-out: MIC
Procedure: as §1

Sarcina lutea 8340 = assay: as above; format: cell-based; settings: Micrococcus luteus; human; Sarcina lutea 8340; 18 hours at 37° C; read-out: MIC
Procedure: as §1

Strep. faecalis I = assay: as above; format: cell-based; settings: Enterococcus faecalis; human; Strep. faecalis I; 18 hours at 37° C; read-out: MIC
Procedure: as §1

Staph. aureus Russell = assay: as above; format: cell-based; settings: Staphylococcus aureus; human; Staph. aureus Russell; 18 hours at 37° C; read-out: MIC
Procedure: as §1

Staph. aureus Oxford [6] = assay: as above; format: cell-based; settings: Staphylococcus aureus; human; Staph. aureus Oxford; 18 hours at 37° C; read-out: MIC
Procedure: as §1

E. coli NCTC 10418 = assay: as above; format: cell-based; settings: Escherichia coli, NCTC10418; human; E. coli NCTC 10418; 18 hours at 37° C; read-out: MIC
Procedure: as §1

[7] = test system: Haemophilus influenzae Wy21; assay: as above; format: cell-based
Procedure: as §1

Staph. aureus W2827 = assay: as above; format: cell-based; settings: Staphylococcus aureus; human; Staph. aureus W2827; 18 hours at 37° C; read-out: MIC
Procedure: as §1

K. aerogenes A = assay: as above; format: cell-based; settings: Klebsiella aerogenes; human; K. aerogenes A; 18 hours at 37° C; read-out: MIC
Procedure: as §1

[8] = test system: M. hyopneumoniae J2206/183^b; assay: MIC against Mycoplasma in vitro (Friis broth with agarose); format: cell-based; settings: Mesomycoplasma hyopneumoniae, 144 h
E. coli E1 = assay: MIC against veterinary bacteria in vitro (Diagnostic Sensitivity Test Agar); settings: Escherichia coli, E1, 18 h
Procedure: as §2

M. hyopneumoniae NB12 = assay: MIC against Mycoplasma in vitro (Friis broth with agarose); format: cell-based; settings: Mesomycoplasma hyopneumoniae, 144 h; M. hyopneumoniae NB12; 6 days at 37° C; read-out: MIC
[9] = test system: M. hyopneumoniae PW/C/210; assay: as above; format: cell-based; settings: Mesomycoplasma hyopneumoniae, 144 h; M. hyopneumoniae PW/C/210; 6 days at 37° C; read-out: MIC
B. subtilis ATCC 6633 = assay: MIC against veterinary bacteria in vitro (Diagnostic Sensitivity Test Agar); settings: Bacillus subtilis, ATCC6633, 18 h
Procedure: as §2

[10] = test system: Neisseria catarrhalis 1502; assay: MIC against human bacteria in vitro (nutrient agar, chocolated horse blood); format: cell-based; settings: human; Neisseria catarrhalis 1502; 18 hours at 37° C; read-out: MIC
Procedure: as §1

[11] = human, Haemophilus influenzae Wy21, 18 hours at 37° C, read-out: MIC
[12] = M. hyopneumoniae LABER, 6 days at 37° C, read-out: MIC
[13] = M. hyopneumoniae JF 435, 6 days at 37° C, read-out: MIC
[14] = M. hyopneumoniae HK (2), 6 days at 37° C, read-out: MIC
[15] = M. hyopneumoniae J2206/183^b, 6 days at 37° C, read-out: MIC

| SMILES | MIC (Staph. aureus Oxford [1]) | MIC (Strep. agalactiae 2788-B) | MIC (E. coli ESS) | MIC (Bacillus subtilis 6633) | MIC [2] | MIC [3] | MIC [4] | MIC (P. mirabilis 889) | MIC [5] | MIC (Strep. spp. 64/848-C) | MIC (Sarcina lutea 8340) | MIC (Strep. faecalis I) | MIC (Staph. aureus Russell) | MIC (Staph. aureus Oxford [6]) | MIC (E. coli NCTC 10418) | MIC [7, 11] | MIC (Staph. aureus W2827) | MIC (K. aerogenes A) | MIC (E. coli E1) | MIC (M. hyopneumoniae JF 435; [13]) | also measured |
| --- | --- | --- | --- | --- | --- | --- | --- | --- | --- | --- | --- | --- | --- | --- | --- | --- | --- | --- | --- | --- | --- |
| CC(=Cc1nnc(-c2cccs2)o1)CC1OCC(CC2OC2C(C)C(C)O)C(O)C1O (centres unmarked) [Example 6, 2-(1-Normon-2-yl)-5-(2-thienyl)-1,3,4-oxadiazole A] | 10 µg/mL (≈ 22.2 µM) | 32 µg/mL (≈ 71 µM) | 8 µg/mL (≈ 17.8 µM) | 4 µg/mL (≈ 8.88 µM) | 16 µg/mL (≈ 35.5 µM) | 2 µg/mL (≈ 4.44 µM) | > 128 µg/mL | > 128 µg/mL | 128 µg/mL (≈ 284 µM) | 32 µg/mL (≈ 71 µM) | 32 µg/mL (≈ 71 µM) | > 128 µg/mL | 16 µg/mL (≈ 35.5 µM) | 8 µg/mL (≈ 17.8 µM) | > 128 µg/mL | 2 µg/mL (≈ 4.44 µM) | 16 µg/mL (≈ 35.5 µM) | > 128 µg/mL | > 80 µg/mL |  | MIC (M. hyopneumoniae LABER): 2.5 µg/mL (≈ 5.55 µM); MIC (M. hyopneumoniae JF 435): 5 µg/mL (≈ 11.1 µM); MIC (M. hyopneumoniae HK (2)): 5 µg/mL (≈ 11.1 µM); MIC [8]: 5 µg/mL (≈ 11.1 µM) |
| CC(=Cc1nc(-c2ccccc2)no1)CC1OCC(CC2OC2C(C)C(C)O)C(O)C1O (centres unmarked) [Example 15, 5-(1-Normon-2-yl)-3-phenyl-1,2,4-oxadiazole A] | 40 µg/mL (≈ 90 µM) | 64 µg/mL (≈ 144 µM) | 8 µg/mL (≈ 18 µM) | 32 µg/mL (≈ 72 µM) | 32 µg/mL (≈ 72 µM) | 64 µg/mL (≈ 144 µM) | > 128 µg/mL | > 128 µg/mL | > 128 µg/mL | 64 µg/mL (≈ 144 µM) | > 128 µg/mL | > 128 µg/mL | 32 µg/mL (≈ 72 µM) | 16 µg/mL (≈ 36 µM) | > 128 µg/mL | 4 µg/mL (≈ 9 µM) | 32 µg/mL (≈ 72 µM) | > 128 µg/mL | > 80 µg/mL | 10 µg/mL (≈ 22.5 µM) | MIC (M. hyopneumoniae LABER; [12]): 5 µg/mL (≈ 11.2 µM); MIC (M. hyopneumoniae NB12): 10 µg/mL (≈ 22.5 µM); MIC (M. hyopneumoniae HK (2); [14]): 10 µg/mL (≈ 22.5 µM); MIC [8, 15]: 10 µg/mL (≈ 22.5 µM); MIC [9]: 5 µg/mL (≈ 11.2 µM) |
| CSc1ccc(-c2nnc(C=C(C)CC3OCC(CC4OC4C(C)C(C)O)C(O)C3O)o2)cc1 (centres unmarked) [Example 3, 2-p-Methylthiophenyl-5-(1-normon-2-yl)-1,3,4-oxadiazole A] | 5 µg/mL (≈ 10.2 µM) | 32 µg/mL (≈ 65.2 µM) | 4 µg/mL (≈ 8.15 µM) | 4 µg/mL (≈ 8.15 µM) | 16 µg/mL (≈ 32.6 µM) | 8 µg/mL (≈ 16.3 µM) | > 128 µg/mL | > 128 µg/mL | > 128 µg/mL | 16 µg/mL (≈ 32.6 µM) | > 128 µg/mL | > 128 µg/mL | 8 µg/mL (≈ 16.3 µM) | 8 µg/mL (≈ 16.3 µM) | > 128 µg/mL | 2 µg/mL (≈ 4.08 µM) | 8 µg/mL (≈ 16.3 µM) | > 128 µg/mL | > 80 µg/mL | 2.5 µg/mL (≈ 5.1 µM) | MIC (M. hyopneumoniae LABER; [12]): 1 µg/mL (≈ 2.04 µM); MIC (M. hyopneumoniae NB12): 1 µg/mL (≈ 2.04 µM); MIC (M. hyopneumoniae HK (2); [14]): 1 µg/mL (≈ 2.04 µM); MIC [9]: 0.5 µg/mL (≈ 1.02 µM) |
| CC(=Cc1nnc(-c2ccncc2)o1)CC1OCC(CC2OC2C(C)C(C)O)C(O)C1O (centres unmarked) [Example 7, 2-(1-Normon-2-yl)-5-(4-pyridyl)-1,3,4-oxadiazole A] | > 80 µg/mL | 8 µg/mL (≈ 18 µM) | 64 µg/mL (≈ 144 µM) | 2 µg/mL (≈ 4.49 µM) |  | > 128 µg/mL | > 128 µg/mL |  |  | 8 µg/mL (≈ 18 µM) | > 128 µg/mL | > 128 µg/mL | 32 µg/mL (≈ 71.8 µM) | 2 µg/mL (≈ 4.49 µM) | > 128 µg/mL |  | 32 µg/mL (≈ 71.8 µM) | 128 µg/mL (≈ 287 µM) | > 80 µg/mL | 2.5 µg/mL (≈ 5.61 µM) | MIC (B. subtilis ATCC 6633): 2.5 µg/mL (≈ 5.61 µM); MIC [10]: 0.25 µg/mL (≈ 0.561 µM); MIC ([7]; Haemophilus influenzae, WY21, 18 h): 1 µg/mL (≈ 2.24 µM); MIC [8, 15]: 2.5 µg/mL (≈ 5.61 µM) |
| CC(=Cc1nc(-c2ccc([N+](=O)[O-])cc2)no1)CC1OCC(CC2OC2C(C)C(C)O)C(O)C1O (centres unmarked) [Example 16, 5-(1-Normon-2-yl)-3-(4-nitrophenyl)-1,2,4-oxadiazole] | 2.5 µg/mL (≈ 5.11 µM) | 32 µg/mL (≈ 65.4 µM) | 8 µg/mL (≈ 16.3 µM) | 16 µg/mL (≈ 32.7 µM) | 32 µg/mL (≈ 65.4 µM) | 32 µg/mL (≈ 65.4 µM) | > 64 µg/mL | > 64 µg/mL | > 64 µg/mL | 32 µg/mL (≈ 65.4 µM) | > 64 µg/mL | > 64 µg/mL | 16 µg/mL (≈ 32.7 µM) | 16 µg/mL (≈ 32.7 µM) | > 64 µg/mL | 4 µg/mL (≈ 8.17 µM) | 16 µg/mL (≈ 32.7 µM) | > 64 µg/mL | > 80 µg/mL | 1 µg/mL (≈ 2.04 µM) | MIC (M. hyopneumoniae LABER): 0.25 µg/mL (≈ 0.511 µM); MIC (B. subtilis ATCC 6633): 2.5 µg/mL (≈ 5.11 µM); MIC [8, 15]: 0.5 µg/mL (≈ 1.02 µM) |
| CC(=Cc1noc(-c2ccccc2)n1)CC1OCC(CC2OC2C(C)C(C)O)C(O)C1O (centres unmarked) [Example 17, 3-(1-Normon-2-yl)-5-phenyl-1,2,4-oxadiazole] | 2.5 µg/mL (≈ 5.62 µM) | 8 µg/mL (≈ 18 µM) | 4 µg/mL (≈ 9 µM) | 2 µg/mL (≈ 4.5 µM) | 4 µg/mL (≈ 9 µM) | 16 µg/mL (≈ 36 µM) | > 128 µg/mL | > 128 µg/mL | > 128 µg/mL | 8 µg/mL (≈ 18 µM) | > 128 µg/mL | > 128 µg/mL | 4 µg/mL (≈ 9 µM) | 4 µg/mL (≈ 9 µM) | > 128 µg/mL | 1 µg/mL (≈ 2.25 µM) | 4 µg/mL (≈ 9 µM) | > 128 µg/mL | > 80 µg/mL | 5 µg/mL (≈ 11.2 µM) | MIC (B. subtilis ATCC 6633): 0.625 µg/mL (≈ 1.41 µM); MIC [8, 15]: 2.5 µg/mL (≈ 5.62 µM) |
